The record followed here is patent US20220204473A1, “COMPOUND AS IRAK INHIBITOR” (SHANGHAI MEIYUE BIOTECH DEVELOPMENT CO., LTD., priority 2018, published 2022).

Structures are written as SMILES.

Series [1] is described as follows: Stability in rat liver microsomes. Type of series: in vitro ADME. To be noted: for half-life at 1 μM: pH 7.4, ∞ = no obvious metabolism found during assay, read-out: Stability test in liver microsomes t1/2, Rat; for Stability test in liver microsomes t1/2, Rat: ∞ = no obvious metabolism found during assay. As for the experimental part:
(§1) 1. Preparation of buffer C:
(§2) Buffer A: 1.0 L of 0.1 M monopotassium phosphate buffer (containing 1.0 mM EDTA);
(§3) Buffer A: 1.0 L of 0.1 M dipotassium phosphate buffer (containing 1.0 mM EDTA);
(§4) Buffer C: Buffer A was added to 700 mL of buffer B until pH reached 7.4.
(§5) The test compound and the reference were separately dissolved in DMSO to give 10 mM stocks.
(§6) 500 μM solution: 10 μL of 10 mM stock solution was added to 190 μL of acetonitrile;
(§7) 1.5 μM dosing solution (in liver microsome solution):
(§8) 18.75 μL of 20 mg/mL liver microsomes were added to 479.75 μL of buffer C, followed by 1.5 μL of 500 μM solution. The mixture was gently shaken to mix well.
(§9) NADPH was weighed, to which an appropriate amount of buffer C was added to prepare a 6 mM NADPH solution.
(§10) 5. 30 μL of 1.5 μM dosing solution was added to wells of a 96-well plate set for different time points (0 min, 5 min, 15 min, 30 min, 45 min) in duplicate.
(§11) 6. Preparation of 0 min samples: 135 μL of acetonitrile (containing internal standard) was added to the 0 min wells, followed by 15 μL of 6 mM NADPH solution.
(§12) 7. The 96-well plate containing 1.5 μM dosing solution and NADPH solution were preheated for 5 min in a water bath at 37° C.
(§13) 8. 15 μL of pre-heated 6 mM NADPH solution was added to wells set for 5 min, 15 min, 30 min and 45 min to start the reaction.
(§14) 9. At time points of 5 min, 15 min, 30 min and 45 min, the reaction was terminated by adding 135 μL of acetonitrile (containing internal standard). The mixtures were vortexed for 10 min and centrifuged at 5594×g for 15 min (Thermo Multifuge×3R).
(§15) 10. 50 μL of the supernatant was transferred to wells of a 96-well plate containing 50 μL of water. The samples were mixed and finally subjected to LC-MS/MS analysis.
In general terms: Microsomes from liver hold many membrane-bound enzymes, among them those of drug oxidation.

Series [2] is described as follows: Stability in human liver microsomes. To be noted: for half-life at 1 μM: pH 7.4, ∞ = no obvious metabolism found during assay, read-out: Stability test in liver microsomes t1/2, Human. Type of series: in vitro ADME. As for the experimental part: as §1, §2, §3, §4, §5, §6, §7, §8, §9, §10, §11, §12, §13, §14, §15
In the next series the target is T1, human IRAK4 (Homo sapiens, UniProt Q9NWZ3).
T1 construct: purchased Cama (so in the source)
T1 sequence (Q9NWZ3 1-460): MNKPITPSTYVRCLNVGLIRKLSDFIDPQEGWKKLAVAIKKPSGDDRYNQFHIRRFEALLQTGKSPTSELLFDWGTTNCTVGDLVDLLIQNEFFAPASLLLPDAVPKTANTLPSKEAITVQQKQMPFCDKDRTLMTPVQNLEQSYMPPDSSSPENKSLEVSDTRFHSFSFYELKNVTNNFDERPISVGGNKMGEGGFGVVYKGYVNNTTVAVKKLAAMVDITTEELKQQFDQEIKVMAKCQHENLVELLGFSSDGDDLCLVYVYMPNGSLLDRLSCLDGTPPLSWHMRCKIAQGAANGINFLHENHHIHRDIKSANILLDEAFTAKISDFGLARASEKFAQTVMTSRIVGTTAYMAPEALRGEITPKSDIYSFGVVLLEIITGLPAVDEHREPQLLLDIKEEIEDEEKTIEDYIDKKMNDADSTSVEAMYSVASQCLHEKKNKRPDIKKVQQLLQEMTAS
The experiment in a line: IRAK4 MSA (Mobility-Shift Assay) at Km ATP. It counts as biochemical. The settings on record: GST-IRAK4 1 nM, ATP 37 μM (Km); read-out: IC50 for inhibiting human IRAK4 kinase. On the procedure: A recombinant fusion protein of N-terminal GST (glutathione-S-transferase) and human IRAK4 was used as enzyme (GST-IRAK4, kinase IRAK4 (Cama)) at a final concentration of 1 nM; ATP (Sigma) was at a final concentration of 37 μM; the substrates used for the kinase reaction were a 5-FAM (5-carboxyfluorescein)-labeled polypeptide (5-FAM-[…]-COOH) and a substrate peptide FAM-P8 (GL Biochem) at final concentrations of […].
In this assay, 500 μM solutions of the compounds were prepared in 100% DMSO, and serially 4-fold diluted to the 10th concentration gradient with 100% DMSO, followed by a 10-fold dilution in the compound buffer (50 mM HEPES. pH 7.5, 0.00015% Brij-35) to give intermediate dilutions of the compounds at a final concentration of 10 μM-0.04 nM containing 10% DMSO respectively, 5 μL of the dilutions were transferred into a black 384-well plate respectively.
IRAK4 was diluted to 2.5 nM in the kinase buffer (50 mM HEPES, pH 7.5, 0.00015% Brij-35, 2 mM DTT). 10 μL of the IRAK4 dilution was transferred to the 384-well plate and co-incubated with the compound for 10-15 min.
The substrate and ATP were diluted to 12.5 μM and 92.5 μM with reaction buffer (50 mM HEPES, pH 7.5, 0.00015% Brij-35, 10 mM MgCl2), respectively. 10 μL of the dilutions were transferred to a 384-well plate and incubated at 28° C. for 1 h respectively. The reaction was terminated by adding 25 μL of 50 mM EDTA to the 384-well plate.
The inhibition rates of IRAK4 by the compounds were calculated by measuring the rate of phosphorylated substrate using a Caliper EZ Reader (PerkinElmer) and the IC50 values were calculated by XL-fit software.

The nature of series [3]: Stability in mouse liver microsomes. Type of series: in vitro ADME. The settings on record: for half-life at 1 μM: pH 7.4, ∞ = no obvious metabolism found during assay, read-out: Stability test in liver microsomes t1/2, Mouse. On the procedure:
as §1, §2, §3, §4, §5, §6, §7, §8, §9, §10, §11, §12, §13, §14, §15

In series [4] the test system is TNF-α release in LPS-induced Balb/c female mice. The series is described as follows: Inhibition of TNF-α release in LPS-induced Balb/c female mice. Type of series: in vivo, mouse. Set-up: concentration or dose not given beside the values. To be noted: oral gavage 5 h before LPS induction, serum 1.5 h after stimulation. As for the experimental part:
In the normal control groups, the animals received an intraperitoneal injection of normal saline (10 mL/kg) and in the model groups, the animals received LPS stimulation (Sigma CAT #L2630, i.p., 10 mL/kg, 0.2 mg/kg). During the assay, to the test compounds, DMSO, Solutol and 10 mM PBS were sequentially added to prepare a solution or suspension of required concentration for administration. For the vehicle, DMSO, Solutol and 10 mM PBS were mixed in a volume ratio of 5:15:80. In each of the groups, the animals were administered through oral gavage (10 mL/kg) 5 h before LPS (or saline) stimulation at predetermined doses, and euthanized with CO2 at 1.5 h after the stimulation for cardiac blood collection. The whole blood was not anticoagulated, incubated in wet ice for 1.5 h, and centrifuged at 2000×g at 4° C. for 10 min to separate the serum. The serum was frozen at −80° C. for TNF-α assay. Quantification of the TNF-α was done with TNF-α ELISA kit according to the manufacturer's instruction.

The mark [5] stands for this setting: ∞ = no obvious metabolism found during assay.

Regarding `CN(C)c1cc2nn([C@H]3C[C@H](C(C)(C)O)C3)cc2cc1NC(=O)c1cccc(C(F)(F)F)n1` [MY-004-089], the half-life at 1 μM was 4.87 h in series [1], 35.6 h in series [2] and 9.4 h in series [3]. Also, the IC50 at human IRAK4 is 6.8 nM. The “Inhibition rate of TNF-α” value in series [4] was 91.27%.

Consider `COc1cc2nn([C@H]3CC[C@](C)(O)CC3)cc2cc1NC(=O)c1cccc(C(F)(F)F)n1` [MY-004-126-1], for which the half-life at 1 μM in series [1] is 6.63 h; in series [2], 7.82 h; in series [3], 5.9 h. In addition, the IC50 on human IRAK4 was found to be 2.7 nM. Moreover, the “Inhibition rate of TNF-α” value in series [4] amounted to 94.43%.

As to `COc1cc2nn([C@H]3CC[C@@](C)(O)CC3)cc2cc1NC(=O)c1cccc(C(F)(F)F)n1` [MY-004-126-2], the “Stability test in liver microsomes t1/2, Rat” value in series [1] was “∞”. Also, the half-life at 1 μM turned out to be 428 h in series [2] and 13.4 h in series [3]. Besides, at human IRAK4, the half-inhibitory concentration (IC50) came to 1 nM. In addition, the “Inhibition rate of TNF-α” value in series [4] was found to be 94.11%.

Turning to `COc1cc2nn([C@H]3CC[C@H](O)CC3)cc2cc1NC(=O)c1cccc(C(F)(F)F)n1` [MY-004-127-1], the half-life at 1 μM in series [1] is 5.1 h; in series [2], 12.8 h; in series [3] it was 768 h. Moreover, the concentration for half-maximal inhibition (IC50) on human IRAK4 worked out at 5.3 nM. The “Inhibition rate of TNF-α” value in series [4] came out at 89.29%.

Consider `CN(C)c1cc2nn([C@H]3CC[C@H](O)CC3)cc2cc1NC(=O)c1cccc(C(F)(F)F)n1` [MY-004-153], for which the half-life at 1 μM in series [1] was 4.17 h; in series [3], 4.72 h. In addition, the “Stability test in liver microsomes t1/2, Human” value in series [2] (setting [5]) is “∞”. In addition, the IC50 at human IRAK4 is 1.9 nM. The “Inhibition rate of TNF-α” value in series [4] is 88.42%.

On to `CC(C)(O)c1cc2nn([C@H]3CC[C@](C)(O)CC3)cc2cc1NC(=O)c1cccc(C(C)(F)F)n1` [MY-004-165], for which, in series [1], the “Stability test in liver microsomes t1/2, Rat” value is “∞”. The half-life at 1 μM in series [2] came out at 53.9 h. Besides, the IC50 at human IRAK4 came out at 4.2 nM. Also, in series [3] (setting [5]), the “Stability test in liver microsomes t1/2, Mouse” value was “∞”. In addition, in series [4], the “Inhibition rate of TNF-α” value was found to be 88.99%.

As a reminder, the IC50 is the concentration that inhibits the measured activity by half.
